In patent publication US8859571B2, “Quinazoline compounds” (GlaxoSmithKline LLC, priority 2009, dated 2014):
“And” between values parts separate entries of the source, which are not always exact repeats. Identical values can stand only once. Counter-ions that a name gives are not always drawn.

molecular target: T1, Full length human TNNI3K (hTNNI3K) (Homo sapiens, UniProt Q59H18); test: Fluorescent polarization assay of compound inhibition on hTNNI3K ATP binding (Biological Assay Method I); details: displacement of fluorescent ligand from hTNNI3K ATP binding pocket; mean of a minimum of 2 experiments; read-out: pXC50 (the source's name) (converted)
T1 construct: His-MBP-TEV-Full length human TNNI3K (hTNNI3K); His (N); MBP (N); TEV cleavage site (N); made in house; host or cells: baculovirus system (printed 'Baculokinase system')
T1 sequence (Q59H18 1-835): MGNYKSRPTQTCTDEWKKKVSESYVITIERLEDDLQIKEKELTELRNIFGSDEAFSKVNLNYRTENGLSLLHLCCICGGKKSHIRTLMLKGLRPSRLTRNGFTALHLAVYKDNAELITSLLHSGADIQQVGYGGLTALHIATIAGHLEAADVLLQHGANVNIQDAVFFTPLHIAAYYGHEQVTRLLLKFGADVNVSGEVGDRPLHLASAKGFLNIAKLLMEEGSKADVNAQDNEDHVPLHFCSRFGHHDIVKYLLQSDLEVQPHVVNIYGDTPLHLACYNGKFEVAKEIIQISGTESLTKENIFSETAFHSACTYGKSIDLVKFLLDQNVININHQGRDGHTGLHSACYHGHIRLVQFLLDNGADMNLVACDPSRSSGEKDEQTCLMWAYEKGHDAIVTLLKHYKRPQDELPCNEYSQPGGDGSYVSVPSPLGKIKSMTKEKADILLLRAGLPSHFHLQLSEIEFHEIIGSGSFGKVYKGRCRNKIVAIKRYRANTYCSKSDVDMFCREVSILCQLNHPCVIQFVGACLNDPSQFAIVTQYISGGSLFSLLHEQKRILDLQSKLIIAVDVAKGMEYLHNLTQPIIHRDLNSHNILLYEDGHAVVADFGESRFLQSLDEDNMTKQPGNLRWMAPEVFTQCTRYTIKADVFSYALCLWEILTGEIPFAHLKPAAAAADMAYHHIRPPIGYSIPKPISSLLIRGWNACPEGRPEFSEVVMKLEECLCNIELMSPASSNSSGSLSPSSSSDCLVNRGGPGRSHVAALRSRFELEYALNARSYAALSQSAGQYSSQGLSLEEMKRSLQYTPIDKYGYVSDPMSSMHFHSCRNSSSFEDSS
From the text: Materials: His-MBP-TEV-Full length human TNNI3K (hTNNI3K) was expressed in Baculokinase system and purified from amylase affinity column followed by Superdex200. The fluorescent ligand 5-({[2-({[3-({4-[(5-hydroxy-2-methylphenyl)amino]-2-pyrimidinyl}amino)phenyl]carbonyl}amino)ethyl]amino}carbonyl)-2-(6-hydroxy-3-oxo-3H-xanthen-9-yl)benzoic acid was used. The preparation of this fluorescent ligand is disclosed in U.S. Provisional Patent Application No. 61/237,815 filed Aug. 28, 2009, the disclosure of which is incorporated by reference herein. The other buffer components, including MgCl2 (Catalog Number M1028), Bis-Tris (Catalog Number B7535), DTT (Catalog Number D9779) and Chaps (Catalog Number C3023) were purchased from Sigma-Aldrich.
Biological Assay Method I:
A fluorescent polarization assay was used to determine does response of compound inhibition on hTNNI3K ATP binding.
Solution 1: Ten (10) mL of a 5 nM 5-({[2-({[3-({4-[(5-hydroxy-2-methylphenyl)amino]-2-pyrimidinyl}amino)phenyl]carbonyl}amino)ethyl]amino}carbonyl)-2-(6-hydroxy-3-oxo-3H-xanthen-9-yl)benzoic acid solution (Solution 1) was prepared by mixing 5 μL of 1M DTT and 80 μL of 10% (w/v) Chaps and 5 μL of a 10 μM 5-({[2-({[3-({4-[(5-hydroxy-2-methylphenyl)amino]-2-pyrimidinyl}amino)phenyl]carbonyl}amino) ethyl]amino}carbonyl)-2-(6-hydroxy-3-oxo-3H-xanthen-9-yl)benzoic acid stock solution into 9910 μL buffer (20 mM Tris, 15 mM MgCl2, pH 7.5). (Stock solution: 10 μM solution of 5-({[2-({[3-({4-[(5-hydroxy-2-methylphenyl)amino]-2-pyrimidinyl}amino)phenyl]carbonyl}amino)ethyl]amino}carbonyl)-2-(6-hydroxy-3-oxo-3H-xanthen-9-yl)benzoic acid in 100% DMSO)
Solution 2 was formed by mixing 53.8 μL of 2.6 μM hTNNI3K with a 6946.2 μL aliquot of Solution 1 (the above 5-({[2-({[3-({4-[(5-hydroxy-2-methylphenyl)amino]-2-pyrimidinyl}amino)phenyl]carbonyl}amino)ethyl]amino}carbonyl)-2-(6-hydroxy-3-oxo-3H-xanthen-9-yl)benzoic acid solution) to make up a 7 mL of mixture of hTNNI3K and 5-({[2-({[3-({4-[(5-hydroxy-2-methylphenyl)amino]-2-pyrimidinyl}amino)phenyl]carbonyl}amino)ethyl]amino}carbonyl)-2-(6-hydroxy-3-oxo-3H-xanthen-9-yl)benzoic acid (Solution 2).
Fifty (50) nL of inhibitors in DMSO (or DMSO controls) were stamped into a 384-well low volume Greiner black plate, followed by addition of 5 μL of Solution 1 to column 18 and 5 μL Solution 2 to columns 1-17 and 19-24 of the plate. The plate was then spun at 500 rpm for 30 seconds and incubated at room temperature for 60 minutes. After that, the fluorescent polarization was measured on Analyst (ex/em: 485/530 nm, Dichroic: 505). For dose response experiments, normalized data were fit by ABASE/XC50 and pXC50=(log((b−y)/(y−a)))/d−log(x), where x is the compound concentration and y is the % activity at specified compound concentration, a is the minimum % activity, b is the maximum % activity, and d is the Hill slope.
The pXC50s are averaged to determine a mean value, for a minimum of 2 experiments.

Row | Compound | IC50
1 | CNS(=O)(=O)c1ccc(OCC(F)(F)F)c(Nc2ncnc3cc(OC)cc(OCCOC)c23)c1 [Example 60, N-methyl-3-[(7-(methyIoxy)-5-{[2-(methyloxy)ethyl]oxy}-4-quinazolinyl)amino]-4-[(2,2,2-trifluoroethyl)oxy]benzene-sulfonamide hydrochloride] | 10 to 100 nM
2 | CNS(=O)(=O)c1ccc(OCC(F)(F)F)c(Nc2ncnc3cc(OC)cc(OC4CCOCC4)c23)c1 [Example 61, N-methyl-3-{[7-(methyloxy)-5-(tetrahydro-2H-pyran-4-yloxy)-4-quinazolinyl]amino}-4-[(2,2,2-trifluoroethyl)oxy] benzenesulfonamide] | 10 to 100 nM
3 | CNS(=O)(=O)c1ccc(OC(C)C(F)(F)F)c(Nc2ncnc3cc(OC)c(OC)c(OC)c23)c1 (stereo not shown) [Example 62, N-methyl-4-[(2,2,2-trifluoro-1-methylethyl)oxy]-3-{[5,6,7-tris(methyloxy)-4-quinazolinyl]amino}benzene sulfonamide trifluoroacetate] | 1 to 10 nM
4 | CCOc1cc(OC)cc2ncnc(Nc3cc(S(=O)(=O)NC)ccc3OC(F)(F)F)c12 [Example 64, 3-{[5-(ethyloxy)-7-(methyloxy)-4-quinazolinyl]amino}-N-methyl-4-[(trifluoromethyl)oxy] benzenesulfonamide] | 10 to 100 nM
5 | CNS(=O)(=O)c1ccc(OC(F)(F)F)c(Nc2ncnc3cc(OC)cc(OC(C)C)c23)c1 [Example 65, N-methyl-3-{[5-[(1-methylethyl)oxy]-7-(methyloxy)-4-quinazolinyl]amino}-4-[(trifluoromethyl)oxy] benzenesulfonamide] | 10 to 100 nM
6 | CCOc1cc(OC)cc2ncnc(Nc3cc(S(=O)(=O)NC)ccc3OC(C)C(F)(F)F)c12 (stereo not shown) [Example 66, 3-{[5-(ethyloxy)-7-(methyloxy)-4-quinazolinyl]amino}-N-methyl-4-[(2,2,2-trifluoro-1-methylethyl)oxy] benzenesulfonamide] | 1 to 10 nM
7 | CNS(=O)(=O)c1ccc(OC(C)C(F)(F)F)c(Nc2ncnc3cc(OC)cc(OC(C)C)c23)c1 (stereo not shown) [Example 67, N-methyl-3-{[5-[(1-methylethyl)oxy]-7-(methyloxy)-4-quinazolinyl]amino}-4-[(2,2,2-trifluoro-1-methylethyl)oxy] benzenesulfonamide] | 10 to 100 nM
8 | CNS(=O)(=O)c1ccc(S(C)(=O)=O)c(Nc2ncnc3cc(OC)c(OC)cc23)c1 [Example 68, 3-{[6,7-bis(methyloxy)-4-quinazolinyl]amino}-N-methyl-4-(methylsulfonyl) benzenesulfonamide trifluoroacetate] | 1 to 10 nM and ~3.98 nM
9 | CNS(=O)(=O)c1ccc(OC(C)C(F)(F)F)c(Nc2ncnc3cc(OC)c(OC)cc23)c1 (stereo not shown) [Example 69, 3-{[6,7-bis(methyloxy)-4-quinazolinyl]amino}-N-methyl-4-[(2,2,2-trifluoro-1-methylethyl)oxy] benzenesulfonamide] | 10 to 100 nM
10 | CNS(=O)(=O)c1ccc(OCC(F)(F)F)c(Nc2ncnc3cc(OC)c(I)cc23)c1 [Example 70, 3-{[6-iodo-7-(methyloxy)-4-quinazolinyl]amino}-N-methyl-4-[(2,2,2-trifluoroethyl)oxy] benzenesulfonamide] | 10 to 100 nM
11 | CCOc1cc2ncnc(Nc3cc(S(=O)(=O)NC)ccc3OCC(F)(F)F)c2cc1OCC [Example 71, 3-{[6,7-bis(ethyloxy)-4-quinazolinyl]amino}-N-methyl-4-[(2,2,2-trifluoroethyl)oxy] benzenesulfonamide] | 1 to 10 nM
12 | CNS(=O)(=O)c1ccc(N(C)C)c(Nc2ncnc3cc(OCCCN4CCOCC4)ccc23)c1 [Example 73, 4-(dimethylamino)-N-methyl-3-[(7-{[3-(4-morpholinyl)propyl]oxy}-4-quinazolinyl)amino]benzenesulfonamide hydrochloride] | 1 to 10 nM
13 | CNS(=O)(=O)c1ccc(OCC(F)(F)F)c(Nc2ncnc3cc(OCCCN4CCOCC4)ccc23)c1 [Example 74, N-methyl-3-[(7-{[3-(4-morpholinyl)propyl]oxy}-4-quinazolinyl)amino]-4-[(2,2,2-trifluoroethyl)oxy] benzenesulfonamide trifluoroacetate] | 10 to 100 nM
